Source: PubChem BioAssay AID2387 (Broad Institute, 2010)
Calls of active or inactive are those of the source.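 How the source made its calls: active means fitted EC50 no more than tenfold above the highest tested concentration; inconclusive means flat fit with 30 to 70% signal loss, or poor fit; inactive means the rest.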

The molecules below were run on Candida albicans CaCi-2 growth (no fluconazole), Alamar Blue (assay: intrinsic antifungal toxicity in Candida, azole-free – CaCi-2 strain, Alamar Blue fluorescence, counter-screen for fluconazole resistance reversal project, dose response (AID 2387)). Conditions: C. albicans CaCi-2 (fluconazole-resistant clinical isolate) growth without fluconazole, 48 h.
`CCN1CCN(C(c2cccnc2)c2cc(Cl)c3cccnc3c2O)CC1` (stereo not given) showed an EC50 of 15.6 µM.
`O=[N+]([O-])c1nn(-c2ccc(Cl)cc2)n(O)c1=NCc1cccnc1` was tested, and the EC50 was > 15 µM (inactive).
`CC(C)CC(=O)NC(c1cccs1)c1ccc2cccnc2c1O` (stereo not given) gave an EC50 of 14.2 µM.
In the case of `O=C(CCS(=O)(=O)c1ccc(F)cc1)Nc1nc(-c2ccncc2)cs1`, the EC50 is reported as > 15 µM (inactive).
With `O=C(Oc1cc2oc(=O)c3c(c2cc1Cl)CCCC3)c1cccs1` the EC50 was > 15 µM (inactive).
In the case of `Cc1ccc(Nc2nc(N)c([N+](=O)[O-])c(N3CCC(C)CC3)n2)cc1C`, the EC50 is reported as > 15 µM (inactive).
`O=C1NC(=O)/C(=C\c2ccc(Br)o2)S1` was tested, and the EC50 was > 15 µM (inactive).
With `C=CCN(CC=C)Cc1c(O)ccc2c(=O)c(-c3ccccc3)coc12` the EC50 was > 15 µM (inactive).
With `CCOC(=O)N1C(=O)C2(CCCCC2)N(c2ccccc2Cl)C1=S` the EC50 was 14.6 µM.
In the case of `CCn1c(Sc2nc(C)nc3scc(-c4cccs4)c23)n[nH]c1=O`, the EC50 is reported as > 16 µM (inactive).
`COc1ccc(-c2nnc(NC(=O)c3ccc(S(=O)(=O)N4CCc5ccccc5C4)cc3)o2)cc1` was tested, and the EC50 was > 15 µM (inactive).
For `Cc1cccc(C(=O)CC(=O)c2cc(Cl)ccc2O)c1`, the EC50 was > 15 µM (inactive).
With `CC(=O)N(O)CCCCCNC(=O)CCC(=O)N(O)CCCCCNC(=O)CCC(=O)N(O)CCCCCN` the EC50 was > 15 µM (inactive).
`CCc1cc(=S)n2c([nH]c3ccccc32)c1C#N` was tested, and the EC50 was > 15 µM (inactive).
In the case of `O=C(Nc1nnc(-c2ccco2)o1)c1ccc(Cl)cc1`, the EC50 is reported as > 15 µM (inactive).
In the case of `CS(=O)(=O)NN1C(=O)c2ccccc2NC1c1cccc2cccnc12` (stereo not given), the EC50 is reported as > 16 µM (inactive).
In the case of `Oc1ccc2ccccc2c1/C=N/Nc1nnc(-c2ncc[nH]2)c2ccccc12`, the EC50 is reported as > 15 µM (inactive).
`O=C(NNC(=S)Nc1ccc(Cl)c(Cl)c1)c1ccccn1` was tested, and the EC50 was 11.3 µM.
In the case of `CNC(=O)Nc1cc(C(F)(F)F)cc(C(F)(F)F)c1`, the EC50 is reported as > 15 µM (inactive).
Work on `Oc1c(CN2CCN(c3ccccc3)CC2)cc(Br)c2cccnc12` yielded an EC50 of 2.11 µM.
In the case of `CC(C)n1cc(/C=C/c2cc[n+](C)cc2)c2ccccc21`, the EC50 is reported as > 15 µM (inactive).
In the case of `Cc1nn(-c2ccccc2)c(C)c1C(=O)OC/C(O)=C(\C#N)c1nc2ccccc2[nH]1`, the EC50 is reported as > 15 µM (inactive).
With `COc1cccc(C2CC(c3ccc(NS(C)(=O)=O)cc3)=NN2C(=O)c2ccccc2)c1OC` (stereo not given) the EC50 was > 15 µM (inactive).
In the case of `Cc1cccc(C(=O)NNC2=C(C(=O)C(F)(F)F)CCC2)c1O`, the EC50 is reported as > 16 µM (inactive).
`O=[N+]([O-])c1ccc(O)c(/C=N/Nc2ccc(Cl)nn2)c1` showed an EC50 of 9.85 µM.
With `Cc1cc(C(C#N)c2ccccc2F)n2ncnc2n1` (stereo not given) the EC50 was > 16 µM (inactive).
In the case of `Cc1ccc2ccc3ccc(C)nc3c2n1`, the EC50 is reported as > 15 µM (inactive).
In the case of `CC(=O)O/N=C/c1c(N2CCOCC2)n(C)c2ccccc12`, the EC50 is reported as > 16 µM (inactive).
In the case of `CC(=O)NC(c1cccs1)c1cc([N+](=O)[O-])c2cccnc2c1O` (stereo not given), the EC50 is reported as > 15 µM (inactive).
With `Cc1c(O)c2c3c(cccc3c1O)C(=O)N(c1ccccc1)C2=O` the EC50 was > 15 µM (inactive).
In the case of `Cc1ccccc1C(=O)O/N=C/c1c(N2CCOCC2)n(C)c2ccccc12`, the EC50 is reported as > 16 µM (inactive).
`Cc1ccc(NC(=O)c2ccccc2NS(=O)(=O)c2ccc(Cl)s2)cc1` was tested, and the EC50 was > 15 µM (inactive).
In the case of `Cc1oc2c(F)c(F)c(F)c(F)c2c1S(=O)(=O)Nc1cccc(C(F)(F)F)c1`, the EC50 is reported as > 16 µM (inactive).
`Cc1ccc(NC(=O)c2noc(C(C)C)c2[N+](=O)[O-])cc1` was tested, and the EC50 was > 16 µM (inactive).
With `Oc1c(Br)cc(Br)cc1/C=N/Nc1ccc(Cl)nn1` the EC50 was > 16 µM (inactive).
`Cc1ccc2nc(/C(C#N)=C\c3ccc(OC(=O)c4cccs4)cc3)[nH]c2c1` was tested, and the EC50 was > 16 µM (inactive).
In the case of `Cc1cc(=O)oc2cc(Oc3ccc([N+](=O)[O-])cc3[N+](=O)[O-])ccc12`, the EC50 is reported as > 16 µM (inactive).
In the case of `CC1CCN(Cc2c(C(=O)N/N=C/c3cc(Cl)ccc3O)nnn2-c2nonc2N)CC1`, the EC50 is reported as > 15 µM (inactive).
`Cc1cccc2sc(NNC(=O)c3cc(-c4cccs4)nc4ccccc34)nc12` was tested, and the EC50 was > 16 µM (inactive).
`O=C(CC(=O)c1cccc([N+](=O)[O-])c1)Nc1ccccc1Cl` was tested, and the EC50 was > 16 µM (inactive).
`COc1ccc(C2C(C#N)=C(N)Oc3c2ccc2cccnc32)cc1OC` (stereo not given) was tested, and the EC50 was > 15 µM (inactive).
For `COc1ccc(-n2nc(C(=O)NCC(=O)NCCC3=CCCCC3)c3ccccc3c2=O)c(OC)c1`, the EC50 was > 15 µM (inactive).
In the case of `CCOc1ccc(-c2ccc(NS(=O)(=O)c3ccc([N+](=O)[O-])cc3)cc2)nn1`, the EC50 is reported as > 15 µM (inactive).
For `Nc1ccc(C(=O)N/N=C\c2ccc(OC(=O)c3ccccc3Cl)cc2)cc1`, the EC50 was > 16 µM (inactive).
In the case of `O=C(c1ccc(Cn2c(=S)[nH]c3ccccc3c2=O)cc1)N1CCN(c2ccccn2)CC1`, the EC50 is reported as > 15 µM (inactive).
For `CCc1cc(C(=O)NC2CCCc3c2cnn3-c2cccc(C)c2C)n(C)n1` (stereo not given), the EC50 was > 15 µM (inactive).
In the case of `CC(=O)c1sc(NC(=O)CCS(=O)(=O)c2ccccc2)nc1C`, the EC50 is reported as > 15 µM (inactive).
In the case of `Cc1nc2ccccc2cc1OCc1ccc(F)cc1`, the EC50 is reported as > 16 µM (inactive).
For `Cc1c(OCC(=O)NCC(O)c2ccccc2)ccc2c(-c3ccccc3)cc(=O)oc12` (stereo not given), the EC50 was > 16 µM (inactive).
For `O=C(Nc1nnc(SCc2ccc(Cl)cc2)s1)c1cnccn1`, the EC50 was > 16 µM (inactive).
